Data published in US12410160B2 (Gilead Sciences, Inc., priority 2021, dated 2025).

What was measured:
[1] = molecular target: human KHK-C (Homo sapiens (Human), UniProt P50053); assay: KHK Biochemical Assay (IC50), ADP-Glo, KHK-C; settings: average of at least two separate assays
Method: (§1) The His-tagged fusion protein was expressed using BL21 (DE3) with IPTG induction and purified using Ni-NTA column followed by dialysis into final buffer containing 25 mM Tris-HCl pH 8.0, 250 mM NaCl.
(§2) KHK Biochemical Assay (IC50)
(§3) Compounds were tested for KHK enzyme inhibition in a high-throughput 384-well assay format using the ADP-Glo assay (Promega) in buffer consisting of 50 mM Hepes (pH 7.4), 140 mM KCl, 5 mM MgCl2 and 0.01% Triton-X. 0.2 nM. […] Compounds were serially diluted (1:3) in DMSO.
(§4) The compounds were pre-incubated with 5 μL of 2× final enzyme concentration for 30 minutes before adding 5 μL of 2× final concentration of ATP and fructose. The plates were incubated at room temperature for 4 hours before adding ADP-Glo reagent to quench the enzyme reaction, followed by incubation at room temperature for 1 hour. The ADP-Glo detection reagent was then added to the plates and luminescence was measured on the Envision plate reader after 1 hour.

[2] = molecular target: human KHK-A (Homo sapiens (Human), UniProt P50053); assay: KHK Biochemical Assay (IC50), ADP-Glo, KHK-A; settings: average of at least two separate assays
human KHK-A, sequence (P50053 other isoform, or with tags, fused parts or gaps): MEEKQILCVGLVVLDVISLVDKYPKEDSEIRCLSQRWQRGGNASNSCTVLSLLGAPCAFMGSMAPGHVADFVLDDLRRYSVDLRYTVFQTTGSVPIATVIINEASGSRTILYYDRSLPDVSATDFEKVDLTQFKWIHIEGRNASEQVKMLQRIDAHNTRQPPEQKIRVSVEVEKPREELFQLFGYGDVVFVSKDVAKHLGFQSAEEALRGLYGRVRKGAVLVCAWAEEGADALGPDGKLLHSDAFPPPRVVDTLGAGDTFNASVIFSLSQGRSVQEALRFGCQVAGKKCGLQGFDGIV
Method: as §1, §2, §3, §4

human KHK-C, sequence (P50053 whole entry, the tested form may be a part): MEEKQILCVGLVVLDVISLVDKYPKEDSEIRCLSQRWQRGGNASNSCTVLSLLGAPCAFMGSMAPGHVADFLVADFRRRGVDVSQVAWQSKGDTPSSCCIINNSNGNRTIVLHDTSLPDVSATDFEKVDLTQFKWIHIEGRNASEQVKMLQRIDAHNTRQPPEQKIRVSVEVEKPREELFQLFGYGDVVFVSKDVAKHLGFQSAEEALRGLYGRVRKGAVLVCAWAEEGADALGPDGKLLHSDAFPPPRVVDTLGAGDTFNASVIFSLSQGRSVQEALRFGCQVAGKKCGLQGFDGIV

Work on `Cc1ncc(-c2nc(N3CC[C@@H]3C)nc3c2CCC3)o1` [Example 325, 2-methyl-5-[2-[(2S)-2-methylazetidin-1-yl]-6,7-dihydro-5H-cyclopenta[d]pyrimidin-4-yl]oxazole] yielded an IC50 ([1]; ADP-Glo) of 452 nM and an IC50 ([2]; ADP-Glo) of 440 nM.
For `COC[C@H]1CCN1c1nc(-c2ccc(C3(N)COC3)cc2)c2c(n1)C(F)(F)CC2` [Example 569, (R)-3-(4-(7,7-difluoro-2-(2-(methoxymethyl)azetidin-1-yl)-6,7-dihydro-5H-cyclopenta[d]pyrimidin-4-yl)phenyl)oxetan-3-amine], the IC50 [1] was 15.2 nM and the IC50 [2] was 43 nM.
`C[C@H]1CCN1c1nc2c(c(-c3cccc(S(=O)(=O)NCCO)c3)n1)CCC2` [Example 54, (S)—N-(2-hydroxyethyl)-3-(2-(2-methylazetidin-1-yl)-6,7-dihydro-5H-cyclopenta[d]pyrimidin-4-yl)benzenesulfonamide] gave an IC50 ([1]; ADP-Glo) of 40.4 nM and an IC50 ([2]; ADP-Glo) of 42 nM.
For `C[C@H]1[C@H](F)CN1c1nc(-c2ccc3c(c2)COC[C@@H]3NS(C)(=O)=O)c2c(n1)C(F)(F)CC2` [Example 582, N—((R)-7-(7,7-difluoro-2-((2S,3R)-3-fluoro-2-methylazetidin-1-yl)-6,7-dihydro-5H-cyclopenta[d]pyrimidin-4-yl)isochroman-4-yl)methanesulfonamide], the IC50 [1] was 0.8 nM and the IC50 [2] was 7 nM.
With `C[C@H]1[C@H](O)CN1c1nc(-c2ccc3c(c2)OC[C@]32COC(=O)N2)c2c(n1)C(F)(F)CC2` (single isomer, unassigned) [Example 482] the IC50 [1] was 12 nM and the IC50 [2] was 26.4 nM.
Work on `C[C@H]1CCN1c1nc2c(c(-c3cccc(CNC(=O)OC(C)(C)C)c3)n1)CCC2` [Example 328, tert-butyl N-[[3-[2-[(2S)-2-methylazetidin-1-yl]-6,7-dihydro-5H-cyclopenta[d]pyrimidin-4-yl]phenyl]methyl]carbamate] yielded an IC50 ([1]; ADP-Glo) of 502 nM and an IC50 ([2]; ADP-Glo) of 609 nM.
In the case of `C[C@H]1[C@H](O)CN1c1nc2c(c(-c3ccc4c(c3)CN(C)C4=O)n1)CCC2` [Example 194, 5-[2-[(2S,3R)-3-hydroxy-2-methyl-azetidin-1-yl]-6,7-dihydro-5H-cyclopenta[d]pyrimidin-4-yl]-2-methyl-isoindolin-1-one], the IC50 ([1]; ADP-Glo) is reported as 219 nM and the IC50 ([2]; ADP-Glo) is reported as 308 nM.
For `C[C@@H]1[C@@H](C)CN1c1nc2c(c(-c3ccc(C(N)=O)cc3)n1)CCC2` [Example 108], the IC50 ([1]; ADP-Glo) was 466 nM and the IC50 ([2]; ADP-Glo) was 594 nM.
`C[C@H]1CCN1c1nc2c(c(-c3cccc(CC(=O)O)c3)n1)CCC2` [Example 6, (S)-2-(3-(2-(2-methylazetidin-1-yl)-6,7-dihydro-5H-cyclopenta[d]pyrimidin-4-yl)phenyl)acetic acid] showed an IC50 ([1]; ADP-Glo) of 243 nM and an IC50 ([2]; ADP-Glo) of 285 nM.
`C[C@H]1CCN1c1nc2c(c(-c3ccc(OCc4ccccc4)c(S(C)(=N)=O)c3)n1)CCC2` (stereo partly drawn) [Example 839, (2-(benzyloxy)-5-(2-((S)-2-methylazetidin-1-yl)-6,7-dihydro-5H-cyclopenta[d]pyrimidin-4-yl)phenyl)(imino)(methyl)4^6-sulfanone] was tested, and the IC50 ([1]; ADP-Glo) was 15.9 nM and the IC50 ([2]; ADP-Glo) was 15.8 nM.
For `C[C@H]1CCN1c1nc2c(c(-c3cccc(C(=O)N[C@H]4CC[C@H]4O)c3)n1)CCC2` (racemic) [Example 60, N-((18*,2R*)-2-hydroxycyclobutyl)-3-(2-((8)-2-methylazetidin-1-yl)-6,7-dihydro-5H-cyclopenta[d]pyrimidin-4-yl)benzamide], the IC50 ([1]; ADP-Glo) was 119 nM and the IC50 ([2]; ADP-Glo) was 61.6 nM.
`CC(C)N1C(=O)NC2(COc3cc(-c4nc(N5C[C@@H](O)[C@@H]5C)nc5c4CCC5(F)F)ccc32)C1=O` (stereo partly drawn) [Example 690] gave an IC50 [1] of 0.3 nM and an IC50 [2] of 45.4 nM.
`C[C@H]1[C@H](O)CN1c1nc(-c2ccc3c(c2)OC[C@@H]3NC2COC2)c2c(n1)C(F)(F)CC2` [Example 585, (2S,3R)-1-[7,7-difluoro-4-[(3R)-3-(oxetan-3-ylamino)-2,3-dihydrobenzofuran-6-yl]-5,6-dihydrocyclopenta[d]pyrimidin-2-yl]-2-methyl-azetidin-3-ol] showed an IC50 [1] of 21.2 nM and an IC50 [2] of 41.6 nM.
Molecule `C[C@H]1CCN1c1nc(-c2ccccc2)c2c(n1)C1CCC2C1` (stereo partly drawn) [Example 31, 2-((S)-2-methylazetidin-1-yl)-4-phenyl-5,6,7,8-tetrahydro-5,8-methanoquinazoline] has an IC50 ([1]; ADP-Glo) of 1480 nM and an IC50 ([2]; ADP-Glo) of 935 nM.
For `CNC(=O)c1ccc(-c2nc(N3CC[C@@H]3C)nc3c2CCC3)cn1` [Example 280, (S)—N-methyl-5-(2-(2-methylazetidin-1-yl)-6,7-dihydro-5H-cyclopenta[d]pyrimidin-4-yl)picolinamide], the IC50 ([1]; ADP-Glo) was 188 nM and the IC50 ([2]; ADP-Glo) was 122 nM.
Molecule `NC1(c2ccc(-c3nc(N4CC[C@@H]4C(F)(F)F)nc4c3CCC4(F)F)cc2F)COC1` [Example 589, 3-[4-[7,7-difluoro-2-[(2R)-2-(trifluoromethyl)azetidin-1-yl]-5,6-dihydrocyclopenta[d]pyrimidin-4-yl]-2-fluoro-phenyl]oxetan-3-amine] has an IC50 [1] of 1.4 nM and an IC50 [2] of 2.7 nM.
For `C[C@H]1CCN1c1nc2c(c(-c3ccc4[nH]cnc4c3)n1)CCC2` [Example 852, (S)-5-(2-(2-methylazetidin-1-yl)-6,7-dihydro-5H-cyclopenta[d]pyrimidin-4-yl)-1H-benzo[d]imidazole], the IC50 ([1]; ADP-Glo) was 18.9 nM and the IC50 ([2]; ADP-Glo) was 21.8 nM.
With `C[C@H]1[C@H](O)CN1c1nc(-c2ccc3c(c2)COCC32COC(=O)N2)c2c(n1)C(F)(F)CC2` (stereo partly drawn) [Example 554, 7-(7,7-difluoro-2-((2S,3R)-3-hydroxy-2-methylazetidin-1-yl)-6,7-dihydro-5H-cyclopenta[d]pyrimidin-4-yl)spiro[isochromane-4,4′-oxazolidin]-2′-one] the IC50 [1] was 2.8 nM and the IC50 [2] was 29.2 nM.
`C[C@H](O)C(=O)NCc1cccc(-c2nc(N3CC[C@@H]3C)nc3c2CCC3)c1` [Example 230, (2S)-2-hydroxy-N-[[3-[2-[(2S)-2-methylazetidin-1-yl]-6,7-dihydro-5H-cyclopenta[d]pyrimidin-4-yl]phenyl]methyl]propanamide] was tested, and the IC50 ([1]; ADP-Glo) was 107 nM and the IC50 ([2]; ADP-Glo) was 96.7 nM.
`C[C@H]1[C@H](N)CN1c1nc2c(c(-c3ccc(C(N)=O)cc3)n1)CCC2` [Example 93] gave an IC50 ([1]; ADP-Glo) greater than 5000 nM and an IC50 ([2]; ADP-Glo) greater than 5000 nM.
With `C[C@H]1[C@H](O)CN1c1nc(-c2ccc3c(c2)OC[C@]32COCC(=O)N2)c2c(n1)C(F)(F)CC2` (single isomer, unassigned) [Example 498] the IC50 [1] was 1.2 nM and the IC50 [2] was 18.9 nM.
`CCC1Oc2cc(-c3nc(N4CC[C@@H]4C)nc4c3CCC4)ccc2C1NS(C)(=O)=O` (stereo partly drawn) [Example 884, N-(2-ethyl-6-(2-((S)-2-methylazetidin-1-yl)-6,7-dihydro-5H-cyclopenta[d]pyrimidin-4-yl)-2,3-dihydrobenzofuran-3-yl)methanesulfonamide] showed an IC50 ([1]; ADP-Glo) of 46.1 nM and an IC50 ([2]; ADP-Glo) of 96.2 nM.
For `C[C@H]1CCN1c1nc2c(c(-c3ccc(C(=O)N(C)C)cc3)n1)CCC2` [Example 293, (S)—N,N-dimethyl-4-(2-(2-methylazetidin-1-yl)-6,7-dihydro-5H-cyclopenta[d]pyrimidin-4-yl)benzamide], the IC50 ([1]; ADP-Glo) was 200 nM and the IC50 ([2]; ADP-Glo) was 153 nM.
With `C[C@H]1[C@H](O)CN1c1nc(-c2ccc3c(c2)OCCC32NC(=O)NC2=O)c2c(n1)C(F)(F)CC2` (stereo partly drawn) [Example 551, 7-(7,7-difluoro-2-((2S,3R)-3-hydroxy-2-methylazetidin-1-yl)-6,7-dihydro-5H-cyclopenta[d]pyrimidin-4-yl)spiro[chromane-4,4′-imidazolidine]-2′,5′-dione] the IC50 [1] was 0.9 nM and the IC50 [2] was 5.1 nM.
